Here are results for 13 molecules from publication PMC9166766 (Experimental & Molecular Medicine, 2022).

No end group written: not given here.

Series [1] has as its system CABIN1 peptide threonine 9 phosphorylation. The series can be described thus: Phosphorylation of threonine 9 of the expressed peptide in Jurkat T cells (PXpTP western blot, LC-MS/MS). The class given is cell-based. As to conditions: Jurkat; for phosphorylation of the CABIN1 peptide, effect of p38 inhibitor: 10 μM inhibitor, 16 h, n = 6. The text has this:
We lysed the cells in IP150 buffer and immunoprecipitated Flag- and HA-tagged proteins with Anti-FLAG ® M2 Affinity Gel (Sigma–Aldrich) and Pierce™ Anti-HA Agarose (Thermo Fisher Scientific), respectively. The composition of the buffer and the subsequent process was described previously. To quantify the western blot results, we measured the band areas using ImageJ (https://imagej.nih.gov/ij/).
We purified HA-mCherry-tagged CABIN1-L-1-2 peptides expressed in Jurkat T cells by immunoprecipitating 4 mg of lysates with Pierce™ Anti-HA Agarose. We eluted the bead-bound proteins by competition with 1 mg/ml HA peptide. After separation by SDS-PAGE and staining with Coomassie Brilliant Blue, we analyzed the purified proteins by LC-MS/MS (ProteomeTech, Inc., Seoul, Korea).
(§1) RU response units, NC negative control.
The phosphorylated threonine of the immunoprecipitated peptide with HA antibody was detected with [PXpTP] antibody. b In vitro kinase assays using purified GST-tagged CABIN1 peptide and PKC downstream kinases. c In vitro kinase assays using purified GST-tagged peptides and kinases included in the MAPK family. d Immunoprecipitation assays using Flag-MAPKs and HA-CABIN1 in HEK293T cells. e, f In vitro kinase assays using p38α and substituted CABIN1 peptides. g Jurkat T cells expressing HA-mCherry-tagged CABIN1 peptide were treated with 10 μM p38α inhibitors for 16 h. Immunoprecipitation was performed with HA antibody and detected by western blotting. h Phosphorylated threonine and peptide-bound CNA of g were measured using ImageJ, and the ratio of phosphorylation and calcineurin binding to the CABIN1 peptide was calculated (n = 6). […] Statistical differences were determined using one-way ANOVA. *p < 0.05, **p < 0.01, ***p < 0.001, CBB Coomassie Brilliant Blue, NC negative control.
Background: A western blot detects proteins with antibodies after separation by electrophoresis.

Another series deals with HIF-1α. As to the kind of experiment: HIF-1α stabilization in Jurkat T cells (western blot). It counts as cell-based. As to conditions: DMOG. On the procedure: Supplementary Fig. 4 No hydroxylation or O -GlcNAcylation occurred in the “PPTP” sequence a Jurkat T cells expressing HA-mCherry -CABIN1 peptide w ere tr eated with DMO G in a dose-dependent manner for 12 h. b Jurkat T cells expressing HA-mCherry-CABIN1 peptide were treated with 500 μ M DMOG in a time-depend ent manner. Each cell lysate was immunoprecipitated with HA antibody and CABIN1 peptide-bound CNA was detected by Western blotting. HIF-1α was det ected as a positive control for DMOG treat ment. c HEK293 T cells were transfected with GST-peptides and GST pull-down assay was conducted.
Hydroxyproline and O-linked glycosylation of the peptides were detected b y Western blotting.
(§2) (1 picture or pasted object on this page, not shown here)

Series [2] has as its system CABIN1 peptide-CNA interaction. As to the kind of experiment: Immunoprecipitation of HA-mCherry-CABIN1 peptide and bound CNA from treated Jurkat T cells. It counts as cell-based. The settings on record: for CABIN1 peptide binding to CNA, effect of p38 inhibitor: 10 μM inhibitor, 16 h, n = 6.
Source text: We lysed the cells in IP150 buffer and immunoprecipitated Flag- and HA-tagged proteins with Anti-FLAG ® M2 Affinity Gel (Sigma–Aldrich) and Pierce™ Anti-HA Agarose (Thermo Fisher Scientific), respectively. […] To quantify the western blot results, we measured the band areas using ImageJ (https://imagej.nih.gov/ij/).
Values shown are the mean ± standard deviation.
The subject of series [3] is CNAβ2 (calcineurin catalytic subunit). As to the kind of experiment: Mammalian two-hybrid assay (VP16 AD-CNAβ2 and GAL4 DBD-peptides, pG5-luc) in HEK293T cells. It counts as cell-based. The settings on record: for interaction with / binding affinity to CNA (mammalian two-hybrid): CNAβ2, 24 h, repeated three times. On the procedure:
(§3) To measure the transcriptional activity of NFAT, we cotransfected Jurkat T cells with GST-tagged peptides and NFAT-luc by electroporation. After 24 h, we pretreated the cells with 0.5 μM FK506 for 1 h and then treated them with 40 nM PMA and 1 μM ionomycin for 8 h. For the mammalian two-hybrid assay, we cotransfected HEK293T cells with GAL4 DBD-tagged CABIN1, VIVIT, chimeric and substituted peptides, VP16 activation domain-tagged CNAβ2, and pG5-luc (luciferase reporter plasmid containing the GAL4-responsive promoter) for 24 h. We lysed the harvested cells with a luciferase assay lysis buffer (17 mM KH2PO4, 183 mM K2HPO4, pH 7.8, 0.2% [v/v] Triton X-100) and sonicated them briefly. We measured luciferase activity for each cell lysate using an Infinite M200 (Tecan, Männedorf, Switzerland). In addition, we confirmed the expression level of the transfected proteins by Western blotting.
A mammalian two-hybrid assay using these peptides was performed (bottom). The compositions of the transfected DNA are described in Supplementary Fig. 1a–c. All experiments were repeated three times and are presented as the mean ± standard deviation. […] SE short exposure, LE long exposure, NC negative control, WT wild-type.
(§4) NC negative control, WT wild-type.

On the set-up of series [4]: method as in PMID 24319282. The settings on record: ref [17]; cited from earlier work. The source says:
FK506 and cyclosporin A, respectively cooperating with FKBP12 or cyclophilin, spatially hinder the substrates’ access to the active site of calcineurin, inhibiting its phosphatase activity[30],[31].

The subject of series [5] is CNAβ2 (calcineurin catalytic subunit). The series can be described thus: Immunoprecipitation assay of Flag-CNAβ2 and tagged peptides in HEK293T cells. It counts as cell-based.
Source text: as §4, §1, §2

The test system is the same in series [6]. The series can be described thus: In vitro His-pulldown assay of GST-tagged peptides with His-tagged CNA. It counts as binding. The settings on record: IP150 buffer with 0.5 mM EDTA. The method, then: (§5) GST-tagged peptides and His-tagged CNAα and β2 were expressed in Escherichia coli BL21(DE3)pLysS. When the OD600 reached 0.5, we treated the bacteria with IPTG (0.1 mM overnight at 18 °C or 1 mM for 4 h at 37 °C). We purified the proteins as described previously. We performed a His-pulldown assay with 0.5 ml of IP150 buffer with 0.5 mM EDTA. We mixed His-tagged CNA with GST-tagged peptides and captured it on Ni-NTA agarose beads (Qiagen, Hilden, Germany). We washed the beads three times with binding buffer and analyzed the proteins by western blotting. We pulled down the GST-tagged peptides using Glutathione Sepharose™ 4 Fast Flow (Cytiva, Marlborough, MA, USA) and the biotin-labeled peptides using Streptavidin Agarose Resin (Thermo Fisher Scientific).
as §4, §1

The test system of series [7] is CNA (calcineurin catalytic subunit). The settings on record: biotinylated peptides, His-CNA. On the procedure:
as §5, §1

Series [8] concerns CNA (His-tagged calcineurin catalytic subunit). As to the kind of experiment: Surface plasmon resonance (Biacore T200). In general terms: SPR reads the build-up and loss of mass on a sensor chip optically.
Procedure: Using a Biacore T200 (Cytiva), we captured the biotin-labeled peptides on the surface of a Series S Sensor Chip SA (Cytiva). […] Each cycle was performed at 25 °C at a flow rate of 30 μl/min with 120 s of contact and 240 s of dissociation. We analyzed the kinetics of interactions using BIAevaluation 3.2 RC1 (Cytiva).
Biotinylated peptide-bound CNA was detected with His antibody. […] CNA concentrations ranged from 1.25, 2.5, 5, and 10 nM. […] Values shown are the mean ± standard deviation.
For another series, the system named is p38α. As to the kind of experiment: In vitro kinase assay, p38α. It counts as biochemical. As to conditions: GST-tagged peptide, 1 h, 30 °C, 50 μM ATP. On the procedure:
(§6) We used the purified GST-tagged peptides for the in vitro kinase assays with activated recombinant kinases obtained from Proqinase GmbH (Freiburg, Germany). We performed the kinase assays in reaction buffer (50 mM HEPES-NaOH, pH 7.5, 3 mM MgCl2, 3 mM MnCl2, 3 μM sodium orthovanadate, 1 mM dithiothreitol, 50 μM unlabeled ATP, 5 μCi ^32P-γ-ATP) for 1 h at 30 °C. We stopped the reaction by adding 5× sample buffer and separated the proteins using SDS-PAGE. The gel was stained with Coomassie Brilliant Blue, dried, and developed on X-ray film.
(§7) The phosphorylated threonine of the immunoprecipitated peptide with HA antibody was detected with [PXpTP] antibody. b In vitro kinase assays using purified GST-tagged CABIN1 peptide and PKC downstream kinases. c In vitro kinase assays using purified GST-tagged peptides and kinases included in the MAPK family. d Immunoprecipitation assays using Flag-MAPKs and HA-CABIN1 in HEK293T cells. e, f In vitro kinase assays using p38α and substituted CABIN1 peptides. g Jurkat T cells expressing HA-mCherry-tagged CABIN1 peptide were treated with 10 μM p38α inhibitors for 16 h. Immunoprecipitation was performed with HA antibody and detected by western blotting. h Phosphorylated threonine and peptide-bound CNA of g were measured using ImageJ, and the ratio of phosphorylation and calcineurin binding to the CABIN1 peptide was calculated (n = 6). […]

The test system of the next series is JNK1. The series can be described thus: In vitro kinase assay, JNK1. It counts as biochemical. The settings on record: GST-tagged peptide, 1 h, 30 °C, 50 μM ATP. On the procedure:
as §6, §7

A further series relates to ERK2. As to the kind of experiment: In vitro kinase assay, ERK2. As to conditions: GST-tagged peptide, 1 h, 30 °C, 50 μM ATP. The class given is biochemical. On the procedure:
as §6, §7

Series [9] deals with NFAT transcriptional activity. The series can be described thus: NFAT-luc luciferase reporter assay in Jurkat T cells. It counts as cell-based. As to conditions: GST-tagged CABIN1 peptides, PMA and ionomycin, n = 3, T9V vs T6V. The method, then:
as §3, §1, §2
In general terms: In a reporter assay the amount or activity of a reporter protein is the signal.

The mark [10] stands for this setting: biotinylated peptide on SA chip, CNA 1.25-10 nM, HBS-EP+ pH 7.4, 25 °C, 30 μl/min, mean ± SD.

`CCCCCCCCCCCCCC(=O)O[C@@H]1[C@@H](C)[C@@]2(O)[C@@H](C=C(CO)C[C@]3(O)C(=O)C(C)=C[C@@H]23)[C@@H]2C(C)(C)[C@]12OC(C)=O` [PMA, phorbol myristate acetate]: in series [1] (40 nM PMA, two hours after treatment), the “CABIN1 peptide phosphorylation after PMA” value is “CABIN1 peptide phosphorylation increased”.
In the case of `COC(=O)CNC(=O)C(=O)OC` [DMOG, dimethyloxalylglycine], the HIF-1α stabilization entry with HIF-1α is on record as “stabilized hypoxia-inducible factor-1alpha (HIF-1α)”. Also, in series [2] (DMOG dose-dependent 12 h or 500 μM time-dependent), the “CABIN1 peptide and CNA interaction, effect of DMOG” value was “did not affect the CABIN1 peptide and CNA interaction”.
With “CABIN1-L-2: CABIN1-L with C-terminal residues removed (FPPEITVTPPT; also: GAL4 DNA-binding domain tag)”, the “interaction with / binding affinity to CNA (mammalian two-hybrid)” value in series [3] is listed as “completely lost its binding affinity to CNA”.
Still for that read-out and setting: next, “CABIN1-L: first 13-amino acid segment containing the PxIxIT motif, from CABIN1-14 (FPPEITVTPPTPT; also: GAL4 DNA-binding domain tag)”: “significantly stronger affinity for CNA than CABIN1-14”; “CABIN1-L-1-1: CABIN1-L-1 with N-terminal residues removed (PPEITVTPPTP; also: GAL4 DNA-binding domain tag)”: “still bound to CNA”.
cyclosporin A: in series [4], the side effects result is “nephrotoxicity, fibrogenesis, neurotoxicity, and diabetes”.
Turning to “T6V: CABIN1 peptide with threonine 6 substituted with valine (PEITVVPPTP; also: GST and HA tags, end not given here)”, the “interaction with CNA by immunoprecipitation” value in [5] is “abolished the interaction”. For the same molecule, in series [6], the “interaction with CNA in vitro (His-pulldown)” value is “abolished the interaction”.
For the molecule “Biotin-AAAMAGFPPEITVTPP{pTHR}P [p-CABIN1-L-1]”, the “affinity for CNA (streptavidin pulldown)” value in series [7] is “dramatically increased the affinity for CNA”. Further, in series [8] (SPR, phosphorylated vs unphosphorylated CABIN1 peptide), the “increase in binding affinity by phosphorylation of the 9th threonine” value is “increased the binding affinity by approximately threefold”. Moreover, in series [8] (setting [10]), the “Ka (association rate)” value is 3393.3±380.8 1/MS and the “Kd (dissociation rate)” value was 5.79e-4±3.2e-5 1/S.
Take “VIVIT PPTP: chimeric peptide with C-terminal sequence of VIVIT swapped for PPTP of CABIN1 (PVIVITPPTP; also: GAL4 DNA-binding domain tag)”: the “fold enhancement of interaction with CNA, VIVIT PPTP vs. L-1-2 WT (effect of N-terminal PVIVIT)” value in series [3] (CNAβ2, VIVIT PPTP vs. L-1-2 WT) was 1.93 fold. In [3] (CNAβ2, VIVIT PPTP vs. VIVIT 10-mer), the “fold enhancement of interaction with CNA, VIVIT PPTP vs. VIVIT 10-mer (effect of C-terminal PPTP)” value stood at 4.76 fold. Also, in the series with p38α, the “phosphorylation by p38α” value is “phosphorylated”. Besides, the “phosphorylation by JNK1” value with JNK1 was “phosphorylated”. Moreover, the “phosphorylation by ERK2” value in the series with ERK2 is “phosphorylated”.
In the case of “CABIN1-L-1-3: CABIN1-L-1 with N-terminal residues removed (EITVTPPTP; also: GAL4 DNA-binding domain tag)”, the “interaction with / binding affinity to CNA (mammalian two-hybrid)” value in series [3] was “lost its binding affinity”.
As for `Cc1ccccc1C(=O)c1ccc(Nc2ccc(Br)cc2N)cc1Cl` [EO 1428], in series [2], the “CABIN1 peptide binding to CNA, effect of p38 inhibitor” value was “decreasing its binding affinity for CNA”. Moreover, the “phosphorylation of the CABIN1 peptide, effect of p38 inhibitor” value in series [1] is listed as “significantly reduced phosphorylation of the CABIN1 peptide”.
Turning to “T9V: CABIN1 peptide with threonine 9 substituted with valine (PEITVTPPVP; not fully specified)”, the “interaction with CNA by immunoprecipitation” value in series [5] is recorded as “abolished the interaction in the cellular experiment”. In addition, the “interaction with CNA in vitro (His-pulldown)” value in [6] is recorded as “not in vitro”. In addition, the “NFAT transcriptional activity restored by substitution” value in [9] is recorded as “restored the CABIN1-suppressed transcriptional activity of NFAT more efficiently than the T6V substitution”.
Regarding `CCc1nc(-c2cccc(C)c2)c(-c2ccnc(NC(=O)c3ccccc3)c2)s1` [TAK 715], in series [2], the “CABIN1 peptide binding to CNA, effect of p38 inhibitor” value is listed as “decreasing its binding affinity for CNA”. Further, the “phosphorylation of the CABIN1 peptide, effect of p38 inhibitor” value in [1] was “significantly reduced phosphorylation of the CABIN1 peptide”.
